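Values below derive from 48-hour exposures of cells grown in 96-well plates, with endpoints linearly interpolated between the two concentrations bracketing the appropriate inhibition level. TGI: total growth inhibition.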
Key:
Assay in all cases: NCI-60 cell line screen, 48 h
CCRF-CEM leukemia = test system: CCRF-CEM leukemia
HCC-2998 colon = test system: HCC-2998 colon
HT29 colon = test system: HT29 colon
K-562 leukemia = test system: K-562 leukemia
MDA-MB-231 breast = test system: MDA-MB-231 breast
MDA-MB-435 = test system: MDA-MB-435
NCI-H522 lung = test system: NCI-H522 lung
NCI/ADR-RES ovarian = test system: NCI/ADR-RES ovarian
SK-MEL-28 melanoma = test system: SK-MEL-28 melanoma
MALME-3M melanoma = test system: MALME-3M melanoma

What does the source list for COc1ccc(C(=O)Oc2c(C#N)sc3c2c(=O)n(-c2ccccc2)c(=S)n3-c2ccccc2)cc1?
TGI (CCRF-CEM leukemia): 74 µM; TGI (HCC-2998 colon): 84.8 µM; TGI (HT29 colon): 62 µM; TGI (K-562 leukemia): > 100 µM; TGI (MDA-MB-231 breast): > 100 µM; TGI (MDA-MB-435): 60.7 µM; TGI (NCI-H522 lung): 4.11 µM; TGI (NCI/ADR-RES ovarian): 52 µM; TGI (SK-MEL-28 melanoma): > 100 µM

Which results are given for CN(C)CC(/C(Cc1ccccc1)=N\NC(=S)NN)c1ccccc1 (configuration not stated)?
TGI (HCC-2998 colon): > 100 µM; TGI (HT29 colon): > 100 µM; TGI (K-562 leukemia): > 100 µM; TGI (MALME-3M melanoma): > 100 µM; TGI (NCI-H522 lung): > 100 µM; TGI (SK-MEL-28 melanoma): > 100 µM

How did the TGI (CCRF-CEM leukemia) turn out when c1ccc(COC2C3COC(O3)C(OCc3ccccc3)C2OCc2ccccc2)cc1 (configuration not stated) was run?
Its TGI is 40.6 µM.

What about the TGI (HCC-2998 colon) of the same compound?
The TGI was 52.1 µM.

What about the TGI (K-562 leukemia) of the same compound?
Its TGI is over 100 µM.

What about the TGI (MDA-MB-231 breast) of the same compound?
The TGI was over 100 µM.

And the TGI (MDA-MB-435)?
Its TGI is over 100 µM.

And the TGI (NCI-H522 lung)?
The TGI was 62.6 µM.

And the TGI (NCI/ADR-RES ovarian)?
Its TGI is over 100 µM.

Which TGI (CCRF-CEM leukemia) does the source give for COc1cc(-c2cc(=O)c3ccccc3[nH]2)cc(OC)c1OC here?
The TGI was over 75 µM.

What about the TGI (HCC-2998 colon) of the same compound?
The TGI was over 75 µM.

And the TGI (HT29 colon)?
Its TGI is over 75 µM.

And the TGI (K-562 leukemia)?
The TGI was over 75 µM.

What about the TGI (MALME-3M melanoma) of the same compound?
The TGI was over 75 µM.

And the TGI (NCI-H522 lung)?
The TGI was over 75 µM.

And the TGI (SK-MEL-28 melanoma)?
The TGI was over 75 µM.

For CN(C)C(F)=PC(F)(F)F (configuration not stated), which TGI (CCRF-CEM leukemia) is on record?
The TGI was over 100 µM.

What about the TGI (HCC-2998 colon) of the same compound?
The TGI was over 100 µM.

What about the TGI (HT29 colon) of the same compound?
The TGI was over 100 µM.

And the TGI (K-562 leukemia)?
Its TGI is over 100 µM.

What about the TGI (MALME-3M melanoma) of the same compound?
The TGI was over 100 µM.

What about the TGI (NCI-H522 lung) of the same compound?
The TGI was over 100 µM.

And the TGI (SK-MEL-28 melanoma)?
The TGI was over 100 µM.

What does the source list for O=C1/C(=C/c2cccs2)NC(=S)N1CN1CCCCC1?
TGI (CCRF-CEM leukemia): > 100 µM; TGI (HT29 colon): > 100 µM; TGI (K-562 leukemia): > 100 µM; TGI (MALME-3M melanoma): > 100 µM; TGI (MDA-MB-231 breast): > 100 µM; TGI (MDA-MB-435): > 100 µM; TGI (NCI-H522 lung): > 100 µM; TGI (NCI/ADR-RES ovarian): > 100 µM; TGI (SK-MEL-28 melanoma): > 100 µM

With CCN1C[C@]2(C)CC[C@H](OC)C34C5C[C@@H]6[C@@H](OC)C[C@@](OC)(C5[C@H]6OCc5ccccc5)C(C13)[C@H](OC(C)=O)[C@@H]42 (some centres not stated) as the compound, how does the TGI (CCRF-CEM leukemia) read?
Its TGI is over 100 µM.

And the TGI (HT29 colon)?
Its TGI is over 100 µM.

What about the TGI (K-562 leukemia) of the same compound?
The TGI was over 100 µM.

And the TGI (MALME-3M melanoma)?
The TGI was over 100 µM.

And the TGI (MDA-MB-231 breast)?
The TGI was over 100 µM.

And the TGI (MDA-MB-435)?
The TGI was over 100 µM.

And the TGI (NCI/ADR-RES ovarian)?
Its TGI is over 100 µM.

What about the TGI (SK-MEL-28 melanoma) of the same compound?
Its TGI is over 100 µM.

What does the source list for O=C(Nc1ccc2[nH]c(C(=O)N3CC(CCl)c4ccc([N+](=O)[O-])cc43)cc2c1)c1cc2ccccc2o1 (configuration not stated)?
TGI (CCRF-CEM leukemia): > 1100 µM; TGI (HCC-2998 colon): > 1100 µM; TGI (HT29 colon): > 1100 µM; TGI (MALME-3M melanoma): > 1100 µM; TGI (MDA-MB-231 breast): > 1100 µM; TGI (MDA-MB-435): > 1100 µM; TGI (NCI-H522 lung): > 1100 µM; TGI (NCI/ADR-RES ovarian): > 1100 µM; TGI (SK-MEL-28 melanoma): > 1100 µM

Which results are given for CNC(=O)N1N[C@H](c2ccccc2)[C@@H]1c1ccccc1?
TGI (CCRF-CEM leukemia): > 100 µM; TGI (HCC-2998 colon): 68.8 µM; TGI (HT29 colon): 32.3 µM; TGI (K-562 leukemia): 54.5 µM; TGI (MALME-3M melanoma): 72.6 µM; TGI (MDA-MB-231 breast): > 100 µM; TGI (NCI/ADR-RES ovarian): 36.6 µM; TGI (SK-MEL-28 melanoma): 40.7 µM

Which TGI (CCRF-CEM leukemia) does the source give for CSC(=N)N1N=C2/C(=C/c3ccccc3)CCC[C@H]2[C@H]1c1ccccc1 here?
Its TGI is 8.2 µM.

What about the TGI (HCC-2998 colon) of the same compound?
Its TGI is 10.4 µM.

What about the TGI (HT29 colon) of the same compound?
The TGI was 5.54 µM.

What about the TGI (K-562 leukemia) of the same compound?
The TGI was 6.09 µM.

And the TGI (MALME-3M melanoma)?
Its TGI is 3.94 µM.

What about the TGI (NCI-H522 lung) of the same compound?
The TGI was 17.2 µM.

What about the TGI (SK-MEL-28 melanoma) of the same compound?
The TGI was 12 µM.

For Oc1cccnc1/C=N/OCc1ccccc1, which TGI (CCRF-CEM leukemia) is on record?
The TGI was over 100 µM.

And the TGI (HCC-2998 colon)?
The TGI was over 100 µM.

What about the TGI (HT29 colon) of the same compound?
Its TGI is over 100 µM.

What about the TGI (K-562 leukemia) of the same compound?
Its TGI is over 100 µM.

What about the TGI (MALME-3M melanoma) of the same compound?
The TGI was over 100 µM.

And the TGI (NCI-H522 lung)?
The TGI was over 100 µM.

With COC(=O)CCC(NC(=S)N/N=C(\C)c1cnccn1)C(=O)OC (configuration not stated) as the compound, how does the TGI (CCRF-CEM leukemia) read?
The TGI was 58.1 µM.

And the TGI (HCC-2998 colon)?
The TGI was over 100 µM.

And the TGI (HT29 colon)?
The TGI was over 100 µM.

And the TGI (K-562 leukemia)?
Its TGI is over 100 µM.

And the TGI (MALME-3M melanoma)?
The TGI was over 100 µM.

What about the TGI (NCI-H522 lung) of the same compound?
The TGI was 84 µM.

What about the TGI (SK-MEL-28 melanoma) of the same compound?
Its TGI is over 100 µM.

With O=C(O)C12CC3CC(CC(F)(C3)C1)C2 as the compound, how does the TGI (CCRF-CEM leukemia) read?
Its TGI is over 100 µM.

What about the TGI (HCC-2998 colon) of the same compound?
The TGI was over 100 µM.

What about the TGI (HT29 colon) of the same compound?
Its TGI is over 100 µM.

What about the TGI (K-562 leukemia) of the same compound?
Its TGI is over 100 µM.

And the TGI (MALME-3M melanoma)?
Its TGI is over 100 µM.

And the TGI (NCI-H522 lung)?
The TGI was over 100 µM.

What about the TGI (SK-MEL-28 melanoma) of the same compound?
The TGI was over 100 µM.

For COCCOCOC(C)(C)[C@H](CCO)O[Si](c1ccccc1)(c1ccccc1)C(C)(C)C, which TGI (HCC-2998 colon) is on record?
Its TGI is 18.9 µM.

And the TGI (HT29 colon)?
Its TGI is 21.4 µM.

And the TGI (MALME-3M melanoma)?
The TGI was 30.5 µM.

And the TGI (NCI-H522 lung)?
Its TGI is 15.4 µM.

And the TGI (SK-MEL-28 melanoma)?
Its TGI is 29.7 µM.

From PubChem BioAssay (NCI)
